From ChEMBL document CHEMBL1821579, “Discovery of amide replacements that improve activity and metabolic stability of a bis-amide smoothened antagonist hit” (Bioorg Med Chem Lett, 2011) come the findings set out here.

Activity calls are given as the source filed them. The rule behind the calls is not given here. Some results are limits rather than exact numbers.

Data set [1] deals with Protein smoothened (Homo sapiens, UniProt Q99835). Briefly: Antagonist activity at human SMO expressed in HEPM cells assessed as reduction of GLI expression after 24 hrs by Quantigene assay. It counts as functional, cell-based.
The nature of data set [2]: Clearance in rat at 0.5 mg/kg, iv. The conditions noted are these: in vivo. Also noted: dose 0.5 mg/kg, route intravenous. It counts as ADME, organism-based.
A short description of data set [3]: Metabolic stability in rat hepatocyte assessed as compound remaining at 30 mins. It counts as ADME, cell-based. The conditions noted are these: hepatocytes, read-out: Stability.
Data set [4] can be described thus: Clearance in rat liver microsomes assessed as compound metabolized after 30 mins. The conditions noted are these: read-out: Activity. It counts as ADME, Microsome.
A short description of data set [5]: Oral bioavailability in rat at 5 mg/kg. It is filed as ADME, organism-based. The conditions noted are these: in vivo.
For data set [6], the target named is Protein smoothened (Rattus norvegicus) (UniProt P97698). Briefly: Antagonist activity at SMO in rat hepatocyte. It is filed as functional, cell-based.
Data set [7] deals with Protein smoothened (Mus musculus, UniProt P56726). Briefly: Antagonist activity at mouse SMO expressed in NIH/3T3 cells transfected with Gli-dependent luciferase-reporter after 15 hrs by luciferase reporter gene assay using luminometer. It is filed as functional, cell-based. (In general: In a reporter assay the amount or activity of a reporter protein is the signal.)
Chain of Protein smoothened (Mus musculus, UniProt P56726) (P56726 whole entry): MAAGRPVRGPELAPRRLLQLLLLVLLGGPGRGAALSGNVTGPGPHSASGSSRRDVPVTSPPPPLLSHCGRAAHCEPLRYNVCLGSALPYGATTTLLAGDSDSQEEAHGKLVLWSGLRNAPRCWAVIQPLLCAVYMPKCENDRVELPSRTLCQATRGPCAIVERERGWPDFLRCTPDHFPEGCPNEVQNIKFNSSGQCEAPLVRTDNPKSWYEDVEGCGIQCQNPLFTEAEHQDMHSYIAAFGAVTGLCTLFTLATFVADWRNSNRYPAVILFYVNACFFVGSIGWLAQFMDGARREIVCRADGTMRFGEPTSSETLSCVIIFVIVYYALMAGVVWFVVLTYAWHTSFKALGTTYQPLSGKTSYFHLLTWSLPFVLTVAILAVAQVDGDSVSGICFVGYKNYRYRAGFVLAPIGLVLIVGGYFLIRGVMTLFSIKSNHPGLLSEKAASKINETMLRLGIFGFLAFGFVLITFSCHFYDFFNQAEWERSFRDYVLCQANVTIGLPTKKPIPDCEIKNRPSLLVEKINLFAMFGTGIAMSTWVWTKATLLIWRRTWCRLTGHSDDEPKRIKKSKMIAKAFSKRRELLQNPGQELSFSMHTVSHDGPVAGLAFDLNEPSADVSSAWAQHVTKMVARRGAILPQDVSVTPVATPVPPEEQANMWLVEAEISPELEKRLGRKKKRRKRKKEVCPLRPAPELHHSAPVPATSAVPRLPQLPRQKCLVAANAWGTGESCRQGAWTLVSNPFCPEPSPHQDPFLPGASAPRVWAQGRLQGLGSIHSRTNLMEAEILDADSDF

Chain of Protein smoothened (Homo sapiens, UniProt Q99835) (Q99835 whole entry): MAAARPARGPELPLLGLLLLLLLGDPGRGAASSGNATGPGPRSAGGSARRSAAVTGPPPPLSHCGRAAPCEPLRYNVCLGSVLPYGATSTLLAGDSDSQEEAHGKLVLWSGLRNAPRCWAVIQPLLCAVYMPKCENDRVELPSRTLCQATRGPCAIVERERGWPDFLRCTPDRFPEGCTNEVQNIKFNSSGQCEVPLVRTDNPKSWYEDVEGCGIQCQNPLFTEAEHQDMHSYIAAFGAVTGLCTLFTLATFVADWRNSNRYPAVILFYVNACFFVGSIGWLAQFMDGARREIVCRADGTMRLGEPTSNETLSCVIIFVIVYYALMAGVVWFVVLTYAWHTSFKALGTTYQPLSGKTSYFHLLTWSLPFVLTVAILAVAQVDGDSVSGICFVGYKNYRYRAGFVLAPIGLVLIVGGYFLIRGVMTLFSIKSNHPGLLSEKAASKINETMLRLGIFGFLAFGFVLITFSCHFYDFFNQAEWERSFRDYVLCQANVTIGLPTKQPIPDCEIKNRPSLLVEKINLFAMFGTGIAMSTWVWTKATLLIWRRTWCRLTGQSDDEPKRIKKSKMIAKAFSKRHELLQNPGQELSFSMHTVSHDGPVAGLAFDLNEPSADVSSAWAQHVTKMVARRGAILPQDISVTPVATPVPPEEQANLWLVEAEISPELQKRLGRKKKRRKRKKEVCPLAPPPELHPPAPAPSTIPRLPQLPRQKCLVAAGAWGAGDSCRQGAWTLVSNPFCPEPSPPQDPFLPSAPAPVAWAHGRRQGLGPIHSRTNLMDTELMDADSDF
Chain of Protein smoothened (Rattus norvegicus) (P97698 whole entry): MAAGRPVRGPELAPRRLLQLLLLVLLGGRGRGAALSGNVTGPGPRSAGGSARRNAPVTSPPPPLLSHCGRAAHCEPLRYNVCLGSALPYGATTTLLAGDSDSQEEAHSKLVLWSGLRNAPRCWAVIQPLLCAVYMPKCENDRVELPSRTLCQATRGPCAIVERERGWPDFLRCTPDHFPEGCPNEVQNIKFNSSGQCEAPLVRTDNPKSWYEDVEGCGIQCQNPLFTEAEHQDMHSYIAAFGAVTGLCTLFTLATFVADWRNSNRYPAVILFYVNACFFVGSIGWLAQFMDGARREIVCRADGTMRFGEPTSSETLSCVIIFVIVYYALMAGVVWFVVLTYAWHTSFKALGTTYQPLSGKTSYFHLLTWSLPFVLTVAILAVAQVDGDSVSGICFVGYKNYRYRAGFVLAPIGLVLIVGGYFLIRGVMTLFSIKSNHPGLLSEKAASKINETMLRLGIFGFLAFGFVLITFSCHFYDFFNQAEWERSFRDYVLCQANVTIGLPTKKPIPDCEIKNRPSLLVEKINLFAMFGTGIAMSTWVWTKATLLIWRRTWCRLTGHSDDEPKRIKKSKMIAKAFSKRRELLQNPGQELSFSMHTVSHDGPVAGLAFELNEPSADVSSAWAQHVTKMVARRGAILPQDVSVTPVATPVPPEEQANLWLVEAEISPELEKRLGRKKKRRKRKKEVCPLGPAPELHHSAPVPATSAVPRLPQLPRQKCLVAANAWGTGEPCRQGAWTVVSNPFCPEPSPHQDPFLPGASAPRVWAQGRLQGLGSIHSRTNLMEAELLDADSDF

By IC50 is commonly meant the midpoint of a concentration-inhibition curve. As to `O=C(Nc1ccc(-c2nccc(-c3ccccc3)n2)cc1)c1ccccc1Cl`, the IC50 on Protein smoothened [1] was determined as 37 nM. Same read-out and setting: for `Cc1oc(-c2ccc(NC(=O)c3ccccc3Cl)cc2)nc1-c1ccccc1` the value was 44 nM; for `O=C(Nc1ccc(-c2nc(-c3ccccc3)co2)cc1)c1ccccc1Cl`, 63 nM; for `O=C(Cc1ccc(NC(=O)c2ccccc2Cl)cc1)c1ccccc1`, 79 nM. Regarding `O=C(Nc1ccc(/C=C/c2ccccc2)cc1)c1ccccc1Cl`, the IC50 on Protein smoothened [1] stood at 49 nM.

For orientation: clearance means the volume of plasma or blood freed of the substance per unit of time. Broadly, the bioavailability is dose-corrected exposure relative to a reference, in per cent. Higher therefore signals good availability. In data set [2], `O=C(Nc1ccc(NC(=O)c2ccccc2Cl)cc1)c1ccccc1` gave a clearance of 23.3 mL/min/kg. The remaining at 0.5 h in data set [3] turned out to be 3%. In addition, the metabolised at 0.5 h in data set [4] is < 10%. Further, the concentration for half-maximal inhibition (IC50) at Protein smoothened [1] stood at 13 nM. In addition, the bioavailability in data set [5] is 12%.

Regarding `O=C(Nc1ccc(-c2cccc(-c3ccccc3)n2)cc1)c1ccccc1Cl`, the IC50 at Protein smoothened [1] is 33 nM. On the same count and under the same terms, for `O=C(Nc1ccc(CC(O)c2ccccc2)cc1)c1ccccc1Cl` (racemic) the value was 14 nM. As for `O=C(Nc1ccc(-c2nnc(-c3ccccc3)o2)cc1)c1ccccc1Cl`, the 50% inhibitory concentration (IC50) on Protein smoothened [1] came to 89 nM. With `CC(=O)Nc1ccc(NC(=O)c2ccccc2Cl)cc1`, the inhibition result in data set [6] is “inactive”. On to `O=C(Nc1ccc(-c2cccc(-c3ccccc3)c2)cc1)c1ccccc1Cl`, for which, on Protein smoothened [1], the concentration for half-maximal inhibition (IC50) was 6.4 nM.

Take `O=C(Nc1ccc(-c2nc(-c3ccccc3)c(C(F)(F)F)o2)cc1)c1ccccc1Cl`: the half-maximal inhibitory concentration (IC50) amounted to 17 nM at Protein smoothened [7] and 31 nM at Protein smoothened [1]. Moreover, in data set [2], the clearance is 3.83 mL/min/kg. The metabolised at 0.5 h in data set [4] is < 10%. Besides, the bioavailability in data set [5] was determined as 47%. Regarding `O=C(Nc1ccc(-c2ccnc(-c3ccccc3)n2)cc1)c1ccccc1Cl`, on Protein smoothened [1], the concentration for half-maximal inhibition (IC50) worked out at 27 nM. Turning to `O=C(Nc1ccc(-c2cc(-c3ccccc3)ccn2)cc1)c1ccccc1Cl`, the values for the half-inhibitory concentration (IC50) against Protein smoothened [7] and on Protein smoothened [1] were 26 nM and 7.2 nM, respectively. In data set [2], this molecule had a clearance of 2.83 mL/min/kg. Besides, in data set [4], the metabolised at 0.5 h is 41%. The molecule also had a bioavailability in data set [5] of 27%.

Turning to `O=C(Nc1ccc(-c2ncc(-c3ccccc3)o2)cc1)c1ccccc1Cl`, the 50% inhibitory concentration (IC50) on Protein smoothened [1] was determined as 40 nM. On the same count and under the same terms, for `O=C(Nc1ccc(-c2ccnc(-c3ccccc3)c2)cc1)c1ccccc1Cl` the value was 93 nM; for `O=C(Nc1ccc(-c2coc(-c3ccccc3)n2)cc1)c1ccccc1Cl`, 93 nM.

Regarding `O=C(Nc1ccc(-c2cc(-c3ccccc3)ncn2)cc1)c1ccccc1Cl`, the IC50 on Protein smoothened [1] came to 48 nM. Same read-out and setting: the same measure for `O=C(Nc1ccc(-c2cncc(-c3ccccc3)c2)cc1)c1ccccc1Cl`: 28 nM. Still for that read-out and setting: the same measure for `O=C(Nc1ccc(-c2nc(-c3ccccc3)cs2)cc1)c1ccccc1Cl`: 27 nM; for `O=C(Nc1ccc(-c2csc(-c3ccccc3)n2)cc1)c1ccccc1Cl`: 109 nM.
